Here are results for 7 molecules from patent US20260166159A1, “KRAS G12D DEGRADATION AGENT, AND PREPARATION METHOD AND USE THEREFOR” (LEADINGTAC PHARMACEUTICAL (SHAOXING) CO., LTD., priority 2022, published 2026).

Assay [1] addresses T1, KRAS-G12D (Homo sapiens, UniProt P01116, G12D).
T1 construct: endogenous in cells; host or cells: A-427 (ATCC), AGS, AsPc-1, Panc 04.03
Nature of the assay: KRAS-G12D degradation assay (Western Blot), AsPc-1 cells. The conditions noted are these: for DC50: 24 h; for Dmax: ASPC1, 24 h. It counts as cell-based. Summed up: (§1)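 Each KRAS G12D mutant line (A-427, AGS, AsPc-1, Panc 04.03) was seeded at 5×10^5 cells/well and treated 24 h at 37 °C with 0.03–3000 nM compound (final DMSO 0.25%). KRAS in lysates was measured by Western blot, normalized to β-actin and compared with controls, giving DC50 and Dmax from curve fits.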
(A western blot detects proteins with antibodies after separation by electrophoresis.)

In assay [2] the test system is KRAS G12D mutant human gastric cancer cell AGS. Nature of the assay: 3D cell proliferation inhibition assay, AGS. It counts as cell-based. The conditions noted are these: 168 h, 7 days, CTG, numeric values. The essentials:
(§2)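 CellTiter-Glo luminescence, read after 60 min at room temperature, measured growth of 3D cultures (5×10^2 cells/well) exposed for 7 days to compounds at final concentrations of 10000–0.026 nM in 0.2% DMSO. Percent inhibition, scaled between DMSO-treated cells and medium alone, was fitted against log concentration for IC50.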

The subject of assay [3] is KRAS G12D mutant human metastatic pancreatic cancer cell AsPc-1. Nature of the assay: 3D cell proliferation inhibition assay, AsPc-1. The following applies: ASPC1, 168 h, AsPc-1, 7 days, CTG, numeric values. It counts as cell-based. Summed up: as §2
The test system of assay [4] is KRAS G12D mutant human pancreatic cancer cell Panc 04.03. In words: 3D cell proliferation inhibition assay, Panc 04.03. In kind it is cell-based. The conditions noted are these: 168 h, Panc 04.03, 7 days, CTG, numeric values. An excerpt: The inhibitory effects of the compounds on 3D cell proliferation were investigated on KRAS G12D mutant human lung cancer cell A427, KRAS G12D mutant human gastric cancer cell AGS, KRAS G12D mutant human metastatic pancreatic cancer cell AsPc-1, KRAS G12D mutant human pancreatic cancer cell Panc 04.03, KRAS G12D mutant human pancreatic cancer cell HPAC, KRAS G12V mutant human lung squamous cell carcinoma cell SW900, and KRAS WT human gastric cancer cell MKN1. The specific procedures were as follows:
10 μL of each compound solution diluted in a gradient was added to corresponding wells of a 96-well low-adsorption microplate (PerkinElmer), so that the final concentrations of the test compounds in the reaction system were in a range of 10000-0.026 nM. The final concentration of DMSO was 0.2%. Then 90 µL of cells were correspondingly seeded into each well to achieve a cell density of 5×10^2 cells/well (the cell density of SW900 was 5×10^1 cells/well, and the cell density of MKN1 was 1×10^3 cells/well). In addition to test wells for the test compounds, both a DMSO control well and a medium control well were set, with the DMSO control well containing DMSO and cells and the medium well containing only a medium. After the sample loading, the 96-well low-adsorption microplate was incubated in an incubator at 37° C. with 5% carbon dioxide for 7 days. After 7 days, the microplate was taken out, and 100 μL of CTG reagent (Promega) was added to each well. The plate was incubated at room temperature for 60 min and read on a microplate reader EnVision by the chemiluminescence program. The inhibition rates of the compounds at each concentration were calculated using the formula for the percentage inhibition of cell proliferation: inhibition rate %=(mean value of DMSO control group−single concentration reading value of compound)/(mean value of DMSO control group−mean value of medium control group)×100. Then non-linear curve fittings for logarithmic concentration-inhibition rate were performed by GraphPad Prism 8, and the IC50 values of the compounds were obtained (Table 5).

The subject of assay [5] is KRAS G12D mutant human pancreatic cancer cell HPAC. In words: 3D cell proliferation inhibition assay, HPAC. In kind it is cell-based. The conditions noted are these: 168 h, 7 days, CTG. The essentials: as §2
For assay [6], the target named is T1, KRAS-G12D. Nature of the assay: KRAS-G12D degradation assay (Western Blot), A-427 cells. In kind it is cell-based. The following applies: A427 cells, 24 h, numeric values. Summed up:
as §1

Assay [7] concerns KRAS G12D mutant human lung cancer cell A427. In words: 3D cell proliferation inhibition assay, A427. In kind it is cell-based. The following applies: A-427, 168 h, A427, 7 days, CTG, numeric values. Summed up: as §2
Assay [8] addresses T2, Human KRAS G12D 6His-tagged (Homo sapiens, UniProt P01116, G12D).
T2 construct: purchased PerkinElmer
Nature of the assay: KRAS-G12D/GTP binding assay (HTRF). The following applies: numeric values. The essentials:
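HTRF kit format: 6His-tagged KRAS G12D incubated with compound (final 0.02-5000 nM, 0.5% DMSO), anti-6His Eu cryptate antibody and GTP Red reagent for 1 h at 25° C. 665/620 nm ratio versus control gave inhibition rates; IC50 by nonlinear fit.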
Background: TR-FRET usually uses a lanthanide donor and a delayed reading to cut background.

T1 sequence (P01116 1-188 isoform P01116-2 G12D): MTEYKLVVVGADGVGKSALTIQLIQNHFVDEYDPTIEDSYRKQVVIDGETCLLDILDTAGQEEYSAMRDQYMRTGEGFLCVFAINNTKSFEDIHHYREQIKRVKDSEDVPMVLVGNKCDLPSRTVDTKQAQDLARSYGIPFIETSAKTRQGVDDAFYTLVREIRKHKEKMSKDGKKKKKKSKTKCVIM
T2 sequence (P01116 1-188 isoform P01116-2 G12D): as above

As usually defined, the DC50 is the concentration at which degradation of the target reaches its halfway point. Read a high DC50 as a less potent degrader. What is called Dmax is the greatest extent of degradation seen. In general, IC50 refers to the concentration needed to halve the response being measured. As for `C#Cc1c(F)ccc2cc(O)cc(-c3ncc4c(N5CC6CCC(C5)N6)nc(OC[C@@H](CN5CCN(CC6CCC7(CC6)CCN(C(=O)c6ccc(OC)c(N8CCC(=O)NC8=O)c6)CC7)CC5)C(C)C)nc4c3F)c12` [Example 252, 1-(5-(9-((4-((R)-2-(((4-(3,8-diazabicyclo[3.2.1]octan-3-yl)-7-(8-ethynyl-7-fluoro-3-hydroxynaphthalen-1-yl)-8-fluoropyrido[4,3-d]pyrimidin-2-yl)oxy)methyl)-3-methylbutyl)piperazin-1-yl)methyl)-3-azaspiro[5.5]undecane-3-carbonyl)-2-methoxyphenyl)dihydropyrimidine-2,4(1H,3H)-dione], at KRAS-G12D [1], the DC50 came to 42.3 nM. At KRAS-G12D [1], this molecule registered a Dmax of 100%. Further, the concentration for half-maximal inhibition (IC50) was 31.7 nM in assay [2], 21 nM in assay [3], 51 nM in assay [4] and 18.9 nM in assay [5].

On to `C#Cc1c(F)ccc2cc(O)cc(-c3ncc4c(N5CC6CCC(C5)N6)nc(OC[C@H](C)CN5CCN(CC6CCC7(CC6)CCN(C(=O)c6ccc(CC)c(N8CCC(=O)NC8=O)c6)CC7)CC5)nc4c3F)c12` [Example 110, 1-(5-(9-((4-((R)-3-((4-(3,8-diazabicyclo[3.2.1]octan-3-yl)-7-(8-ethynyl-7-fluoro-3-hydroxynaphthalen-1-yl)-8-fluoropyrido[4,3-d]pyrimidin-2-yl)oxy)-2-methylpropyl)piperazin-1-yl)methyl)-3-azaspiro[5.5]undecane-3-carbonyl)-2-ethylphenyl)dihydropyrimidine-2,4(1H,3H)-dione], for which, at KRAS-G12D [1], half-maximal degradation (DC50) was put at 2.56 nM. This molecule yielded a maximal degradation (Dmax) at KRAS-G12D [1] of 99.2%. The IC50 in assay [2] came out at 5.69 nM; in assay [3] it was 4.47 nM; in assay [4], 12.5 nM; in assay [5], 18.6 nM.

`C#Cc1c(F)ccc2cc(O)cc(-c3ncc4c(N5CC6CCC(C5)N6)nc(OC[C@H](C)CN5CCN(CC6CCC7(CC6)CCN(C(=O)c6ccc(C)c(N8CCC(=O)NC8=O)c6)CC7)CC5)nc4c3F)c12` [Example 100, 1-(5-(9-((4-((R)-3-((4-(3,8-diazabicyclo[3.2.1]octan-3-yl)-7-(8-ethynyl-7-fluoro-3-hydroxynaphthalen-1-yl)-8-fluoropyrido[4,3-d]pyrimidin-2-yl)oxy)-2-methylpropyl)piperazin-1-yl)methyl)-3-azaspiro[5.5]undecane-3-carbonyl)-2-methylphenyl)dihydropyrimidine-2,4(1H,3H)-dione] displayed a half-maximal degradation concentration (DC50) on KRAS-G12D [1] of 2.54 nM. Besides, the Dmax on KRAS-G12D [1] turned out to be 100%. For the same molecule, the IC50 is 3.63 nM in assay [2], 2.02 nM in assay [3], 23.8 nM in assay [4] and 2.43 nM in assay [5].

On KRAS-G12D [1], `[2H]C([2H])([2H])Oc1ccc(C(=O)N2CCC3(CCC(CN4CCN(C[C@@H](C)COc5nc(N6CC7CCC(C6)N7)c6cnc(-c7cc(O)cc8ccc(F)c(C#C)c78)c(F)c6n5)CC4)CC3)CC2)cc1N1CCC(=O)NC1=O` [Example 253, 1-(5-(9-((4-((R)-3-((4-(3,8-diazabicyclo[3.2.1]octan-3-yl)-7-(8-ethynyl-7-fluoro-3-hydroxynaphthalen-1-yl)-8-fluoropyrido[4,3-d]pyrimidin-2-yl)oxy)-2-methylpropyl)piperazin-1-yl)methyl)-3-azaspiro[5.5]undecane-3-carbonyl)-2-(methoxy-d3)phenyl)dihydropyrimidine-2,4(1H,3H)-dione] yielded a DC50 of 1.39 nM. The molecule also showed a Dmax at KRAS-G12D [1] of 100%. The IC50 in assay [2] worked out at 3.92 nM; in assay [3], 1.59 nM; in assay [4] it was 18.8 nM; in assay [5], 10.6 nM.

For `C#Cc1c(F)ccc2cc(O)cc(-c3ncc4c(N5CC6CCC(C5)N6)nc(OC[C@H](C)CN5CCN(CC6CCC7(CC6)CCN(C(=O)c6ccc(Cl)c(N8CCC(=O)NC8=O)c6)CC7)CC5)nc4c3F)c12` [Example 102, 1-(5-(9-((4-((R)-3-((4-(3,8-diazabicyclo[3.2.1]octan-3-yl)-7-(8-ethynyl-7-fluoro-3-hydroxynaphthalen-1-yl)-8-fluoropyrido[4,3-d]pyrimidin-2-yl)oxy)-2-methylpropyl)piperazin-1-yl)methyl)-3-azaspiro[5.5]undecane-3-carbonyl)-2-chlorophenyl)dihydropyrimidine-2,4(1H,3H)-dione], the DC50 on KRAS-G12D [1] was 8.93 nM. The molecule further displayed a maximal degradation (Dmax) on KRAS-G12D [1] of 100%. Moreover, the concentration for half-maximal inhibition (IC50) in assay [2] was found to be 6.56 nM; in assay [3], 3.69 nM; in assay [4], 15.2 nM; in assay [5], 13.5 nM.

At KRAS-G12D [6], `C#Cc1c(F)ccc2cc(O)cc(-c3ncc4c(N5CC6CCC(C5)N6)nc(OCC5(CN6CCN(CC7CCC8(CC7)CCN(C(=O)c7ccc(CC)c(N9CCC(=O)NC9=O)c7)CC8)CC6)CC5)nc4c3F)c12` [Example 243, 1-(5-(9-((4-((1-(((4-(3,8-diazabicyclo[3.2.1]octan-3-yl)-7-(8-ethynyl-7-fluoro-3-hydroxynaphthalen-1-yl)-8-fluoropyrido[4,3-d]pyrimidin-2-yl)oxy)methyl)cyclopropyl)methyl)piperazin-1-yl)methyl)-3-azaspiro[5.5]undecane-3-carbonyl)-2-ethylphenyl)dihydropyrimidine-2,4(1H,3H)-dione] showed a 50% degradation concentration (DC50) of 1.66 nM. This molecule registered a Dmax at KRAS-G12D [6] (A-427) of 92.9%. Besides, the half-inhibitory concentration (IC50) is 121 nM in assay [7]; 2.16 nM in assay [2]; 2.34 nM in assay [3]; 21.7 nM in assay [4]; 0.61 nM in assay [5].

Turning to `C#Cc1c(F)ccc2cc(O)cc(-c3ccc4c(N5CC6CCC(C5)N6)nc(OCC(C)CN5CCN(CC6CCC7(CC6)CCN(C(=O)c6ccc(C)c(N8CCC(=O)NC8=O)c6)CC7)CC5)nc4c3F)c12` (stereo not drawn) [Example 174, 1-(5-(9-((4-(3-((4-(3,8-diazabicyclo[3.2.1]octan-3-yl)-7-(8-ethynyl-7-fluoro-3-hydroxynaphthalen-1-yl)-8-fluoroquinazolin-2-yl)oxy)-2-methylpropyl)piperazin-1-yl)methyl)-3-azaspiro[5.5]undecane-3-carbonyl)-2-methylphenyl)dihydropyrimidine-2,4(1H,3H)-dione], the IC50 in assay [8] amounted to 5.19 nM; in assay [7], 64.2 nM; in assay [2], 19.4 nM; in assay [3], 62.5 nM; in assay [4] it was 31.3 nM; in assay [5], 1.78 nM. On KRAS-G12D [1], this molecule registered a DC50 of 13.6 nM. Besides, on KRAS-G12D [1], the Dmax stood at 100%.
